# In patent US11951094B2, “TLR2 modulator compounds, pharmaceutical compositions and uses thereof” (Axial Therapeutics, Inc., priority 2020, dated 2024):
# Structures can show the parent of a compound that is named as a salt.
# Target: TLR2 (Homo sapiens, UniProt O60603)
# Experiment: TLR2 agonist screening assay, HEK-Blue TLR2 reporter cell line (NF-kB-driven SEAP, absorbance at 600 nm)
# Assay type: cell-based
# Design: host or cells: HEK-293 (HEK-Blue TLR2 reporter cell line)
# Conditions: HEK-Blue TLR2 reporter cells, agonist mode; average of all runs (Table 3)
# Source text: TLRs are a class of cell-surface receptors expressed on many different cell types that recognize conserved structural motifs present on pathogen-derived molecules. TLR2 recognizes bacteria-derived lipopeptides. […] Provided herein is an assay to identify and characterize the binding affinities of novel TLR2 agonists.
# The in vitro TLR2 assay consists of a cell line that responds to TLR2 engagement by producing a factor that elicits a color change in the culture media and can be readily measured by various colorimetric detection methods. This assay enables the identification of existing and novel compounds that engage TLR2 and, by virtue of compound dilution, to approximate the binding affinity of these compounds for eliciting a TLR2 signal.
# The TLR2 screening assay was developed from the HEK-Blue TLR2 reporter cell line that is commercially available from Invivogen (San Diego, CA). The reporter cell line consists of HEK-293 embryonic kidney cells that have been engineered to express TLR2 and with an NF-kB promoter driving expression of Secreted Alkaline Phosphatase (SEAP). Upon engagement of TLR2, downstream signaling results in activation of NF-kB pathway activation and secretion of SEAR In the presence of the detection reagent in the tissue culture media, SEAP mediates a color change from clear to indigo that is readily assessed by measuring absorbance at 600 nm.
# HEK-Blue TLR2 reporter cells are cultured according to manufacturer's specifications until a confluence of 70-90%, at which point the cells are trypsinized, counted, and plated into 96-well plates at approximately 40,000 cells per well. Cells are cultured overnight and the TLR2 assay is performed 16-24 hours post-plating into 96 well plates.
# Compounds are diluted from stocks dissolved in DMSO and a 1% DMSO final concentration is maintained in all testing wells.
# The assay consists of removing the cell culture media after cells have been cultured overnight and replacing the media with HEK-Blue Detection media with TLR2 agonists at indicated dilution schemes. The Detection media contains a chemical substrate that turns from clear to indigo when acted upon by SEAP. The HEK-Blue cells are then cultured overnight in Detection media with diluted compounds. After overnight culture with agonists, each well of the plate is assayed in a plate reader at 600 nanometer absorbance.
# • (1) HEK-Blue TLR2 cells are diluted in complete DME culture medium and plated into 96-well plates at 40,000 cells per well and cultured overnight. • (2) After 16-24 hours in culture, the media is removed and replaced with 200 microliters per well of HEK-Blue Detection media. • (3) TLR2 agonists are diluted 100-fold from DMSO stocks into each well, yielding a final DMSO concentration of 1% in all wells. • (3) Treated cells are cultured overnight and the following day are assayed in plate reader for Absorbance at 600 nanometer.
# Following assay measurements utilizing either HEK-Blue detection or cytokine release, all data is analyzed with the GraphPad Prism8 statistical package to determine EC50, binding and activity metrics for the TLR2 modulators.
# Data is generated using protocol described in Example 44.
# Sequence of TLR2 (O60603 21-784): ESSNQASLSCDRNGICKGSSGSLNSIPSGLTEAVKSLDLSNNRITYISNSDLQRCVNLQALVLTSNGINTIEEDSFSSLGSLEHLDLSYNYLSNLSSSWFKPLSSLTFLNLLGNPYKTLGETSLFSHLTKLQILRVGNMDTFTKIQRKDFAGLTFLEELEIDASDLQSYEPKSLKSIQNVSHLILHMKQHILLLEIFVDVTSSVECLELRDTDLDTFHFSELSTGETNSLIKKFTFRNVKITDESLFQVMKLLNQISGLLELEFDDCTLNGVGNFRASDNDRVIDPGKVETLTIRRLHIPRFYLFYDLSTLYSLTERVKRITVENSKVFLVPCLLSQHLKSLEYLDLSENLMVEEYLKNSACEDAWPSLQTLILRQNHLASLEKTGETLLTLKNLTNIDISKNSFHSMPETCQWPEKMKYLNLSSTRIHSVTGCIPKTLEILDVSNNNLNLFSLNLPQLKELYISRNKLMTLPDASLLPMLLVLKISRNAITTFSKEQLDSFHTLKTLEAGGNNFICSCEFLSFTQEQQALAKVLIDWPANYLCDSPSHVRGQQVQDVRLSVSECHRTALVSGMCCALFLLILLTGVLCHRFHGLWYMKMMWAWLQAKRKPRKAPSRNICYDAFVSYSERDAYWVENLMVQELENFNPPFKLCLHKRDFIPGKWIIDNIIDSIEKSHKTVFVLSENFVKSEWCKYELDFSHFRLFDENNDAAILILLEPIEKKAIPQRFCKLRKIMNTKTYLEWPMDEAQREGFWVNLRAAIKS
row,Structure (SMILES),EC50 [nM]
1,"CCCCCCCCCCCCCCNC(=O)[C@@H]1CN(C(=O)c2ccc(C(=O)N3C[C@@H](C(=O)N[C@H]4C[C@@H]4c4ccccc4)[C@H](C(=O)N[C@H]4C[C@@H]4c4ccccc4)C3)cc2)C[C@H]1O (racemic) [Compound 045, (3S,4S)-1-(4-((3S*,4R*)-3-hydroxy-4-(tetradecylcarbamoyl)pyrrolidine-1-carbonyl)benzoyl)-N3,N4-bis((1S,2R)-2-phenylcyclopropyl)pyrrolidine-3,4-dicarboxamide]",351 to 1000
2,"CCCCCCCCCCCCCCNC(=O)[C@@H]1CN(C(=O)c2ccc(C(=O)N3C[C@@H](C(=O)N[C@H]4C[C@@H]4c4ccccc4)[C@H](C(=O)N[C@H]4C[C@@H]4c4ccccc4)C3)cc2)CCN1C [Compound 069, (3S,4S)-1-(4-((S)-4-methyl-3-(tetradecylcarbamoyl)piperazine-1-carbonyl)benzoyl)-N3,N4-bis ((1S,2R)-2-phenylcyclopropyl) pyrrolidine-3,4-dicarboxamide formate]",351 to 1000
3,"CCCCCCCCCC(=O)N1CCN(C(=O)c2ccc(C(=O)N3C[C@@H](C(=O)N[C@H]4C[C@@H]4c4ccccc4)[C@H](C(=O)N[C@H]4C[C@@H]4c4ccccc4)C3)cc2)CC1C(=O)NCCCCCC (stereo partly drawn) [Compound 064, (3S,4S)-1-(4-(4-decanoyl-3-(hexylcarbamoyl)piperazine-1-carbonyl)benzoyl)-N3,N4-bis((1S,2R)-2-phenylcyclopropyl)pyrrolidine-3,4-dicarboxamide]",0.1 to 50
4,"CCCCCCNC(=O)C1CN(C(=O)c2ccc(C(=O)N3C[C@@H](C(=O)N[C@H]4C[C@@H]4c4ccccc4)[C@H](C(=O)N[C@H]4C[C@@H]4c4ccccc4)C3)cc2)CCN1C(=O)CCc1ccc(F)cc1 (stereo partly drawn) [Compound 041, (3S,4S)-1-(4-(4-(3-(4-fluorophenyl)propanoyl)-3-(hexylcarbamoyl)piperazine-1-carbonyl)benzoyl)-N3,N4-bis((1S,2R)-2-phenylcyclopropyl)pyrrolidine-3,4-dicarboxamide]",351 to 1000

# Same assay, conditions: HEK-Blue TLR2 reporter cells, agonist mode; average of all runs (Table 4)
row,Structure (SMILES),EC50 [nM]
1,"CCCCCCCCCCCCCCNC(=O)[C@@H]1CN(C(=O)c2ccc(C(=O)N3C[C@@H](C(=O)N[C@H]4C[C@@H]4c4ccccc4)[C@H](C(=O)N[C@H]4C[C@@H]4c4ccccc4)C3)cc2)C[C@@H]1OC (single isomer, unassigned) [Compound 107, (3S,4S)-1-(4-((3R*,4R*)-3-methoxy-4-(tetradecylcarbamoyl)pyrrolidine-1-carbonyl)benzoyl)-N3,N4-bis((1S,2R)-2-phenylcyclopropyl)pyrrolidine-3,4-dicarboxamide]",351 to 1000
2,"CCCCCCCCCCCCCCC(=O)N[C@H]1CN(C(=O)c2ccc(C(=O)N3C[C@@H](C(=O)N[C@H]4C[C@@H]4c4ccccc4)[C@H](C(=O)N[C@H]4C[C@@H]4c4ccccc4)C3)cc2)C[C@@H]1O [Compound 078, (3S,4S)-1-(4-((3S,4S)-3-hydroxy-4-pentadecanamidopyrrolidine-1-carbonyl)benzoyl)-N3,N4-bis((1S,2R)-2-phenylcyclopropyl)pyrrolidine-3,4-dicarboxamide]",51 to 350
3,"CCCCCCCO[C@@H]1CN(C(=O)c2ccc(C(=O)N3C[C@@H](C(=O)N[C@H]4C[C@@H]4c4ccccc4)[C@H](C(=O)N[C@H]4C[C@@H]4c4ccccc4)C3)cc2)C[C@H]1C(=O)NCCCCCC (single isomer, unassigned) [Compound 114, (3S,4S)-1-(4-((3S*,4R*)-3-(heptyloxy)-4-(hexylcarbamoyl)pyrrolidine-1-carbonyl)benzoyl)-N3,N4-bis((1S,2R)-2-phenylcyclopropyl)pyrrolidine-3,4-dicarboxamide]",51 to 350
4,"CCCCCCCNC(=O)[C@@H]1CN(C(=O)c2ccc(C(=O)N3C[C@@H](C(=O)N[C@H]4C[C@@H]4c4ccccc4)[C@H](C(=O)N[C@H]4C[C@@H]4c4ccccc4)C3)cc2)CCN1C(C)=O [Compound 258, (3S,4S)-1-(4-((S)-4-acetyl-3-(heptylcarbamoyl)piperazine-1-carbonyl)benzoyl)-N3,N4-bis((1S,2R)-2-phenylcyclopropyl)pyrrolidine-3,4-dicarboxamide]",> 1000
5,"CCCCCCCCCCCCCCC(=O)NC1CCN(C(=O)c2cccc(C(=O)N3C[C@@H](C(=O)N[C@H]4C[C@@H]4c4ccccc4)[C@H](C(=O)N[C@H]4C[C@@H]4c4ccccc4)C3)c2)CC1 [Compound 166, (3S,4S)-1-(3-(4-pentadecanamidopiperidine-1-carbonyl)benzoyl)-N3,N4-bis((1S,2R)-2-phenylcyclopropyl)pyrrolidine-3,4-dicarboxamide]",> 1000
6,"CCCCCCNC(=O)[C@H](CNC(=O)c1ccc(C(=O)N2C[C@@H](C(=O)N[C@H]3C[C@@H]3c3ccccc3)[C@H](C(=O)N[C@H]3C[C@@H]3c3ccccc3)C2)cc1)NC(=O)CCCC [Compound 130, (3S,4S)-1-(4-(((S)-3-(hexylamino)-3-oxo-2-pentanamidopropyl)carbamoyl)benzoyl)-N3,N4-bis((1S,2R)-2-phenylcyclopropyl)pyrrolidine-3,4-dicarboxamide]",351 to 1000
7,"CCCCCCCCCCCCCCNC(=O)C1CCN(Cc2ccc(C(=O)N3C[C@@H](C(=O)N[C@H]4C[C@@H]4c4ccccc4)[C@H](C(=O)N[C@H]4C[C@@H]4c4ccccc4)C3)cc2)C1=O (stereo partly drawn) [Compound 142, (3S,4S)-1-(4-((2-oxo-3-(tetradecylcarbamoyl)pyrrolidin-1-yl)methyl)benzoyl)-N3,N4-bis((1S,2R)-2-phenylcyclopropyl)pyrrolidine-3,4-dicarboxamide]",> 1000
8,"CCCCCCC(=O)N[C@@H](CNC(=O)c1ccc(C(=O)N2C[C@@H](C(=O)N[C@H]3C[C@@H]3c3ccccc3)[C@H](C(=O)N[C@H]3C[C@@H]3c3ccccc3)C2)cc1)C(=O)NCc1ccc(F)cc1 [Compound 128, (3S,4S)-1-(4-(((S)-3-((4-fluorobenzyl)amino)-2-heptanamido-3-oxopropyl)carbamoyl)benzoyl)-N3,N4-bis((1S,2R)-2-phenylcyclopropyl)pyrrolidine-3,4-dicarboxamide]",> 1000
9,"CCCCCCCCCCCCCCNC(=O)[C@@H]1CN(C(=O)c2ccc(C(=O)N3C[C@@H](C(=O)N[C@H]4C[C@@H]4c4ccccc4)[C@H](C(=O)N[C@H]4C[C@@H]4c4ccccc4)C3)cc2)C[C@H]1NC [Compound 098, (3S,4S)-1-(4-((3S,4R)-3-(methylamino)-4-(tetradecylcarbamoyl)pyrrolidine-1-carbonyl)benzoyl)-N3,N4-bis((1S,2R)-2-phenylcyclopropyl)pyrrolidine-3,4-dicarboxamide]",0.1 to 50
10,"CCCCCCCCN1C(=O)N(Cc2ccc(C(=O)N3C[C@@H](C(=O)N[C@H]4C[C@@H]4c4ccccc4)[C@H](C(=O)N[C@H]4C[C@@H]4c4ccccc4)C3)cc2)C[C@@H]1C(=O)NCCCCCC [Compound 168, (3S,4S)-1-(4-(((R)-4-(hexylcarbamoyl)-3-octyl-2-oxoimidazolidin-1-yl)methyl)benzoyl)-N3,N4-bis((1S,2R)-2-phenylcyclopropyl)pyrrolidine-3,4-dicarboxamide]",51 to 350
11,"CCCCCCCCCCCCCCNC(=O)[C@@H]1CN(Cc2ccc(C(=O)N3C[C@@H](C(=O)N[C@H]4C[C@@H]4c4ccccc4)[C@H](C(=O)N[C@H]4C[C@@H]4c4ccccc4)C3)cc2)C(=O)CN1C [Compound 093, (3S,4S)-1-(4-(((S)-4-methyl-2-oxo-5-(tetradecylcarbamoyl)piperazin-1-yl)methyl)benzoyl)-N3,N4-bis((1S,2R)-2-phenylcyclopropyl)pyrrolidine-3,4-dicarboxamide]",51 to 350
12,CCCCCCN1C(=O)[C@H](CCCCC)NC(=O)[C@@H]1CNC(=O)c1ccc(C(=O)N2C[C@@H](C(=O)N[C@H]3C[C@@H]3c3ccccc3)[C@H](C(=O)N[C@H]3C[C@@H]3c3ccccc3)C2)cc1 [Compound 159],351 to 1000
13,"CCCCCCCCCCCCCCNC(=O)[C@H]1CN(C(=O)c2ccc(C(=O)N3C[C@@H](C(=O)N[C@H]4C[C@@H]4c4ccccc4)[C@H](C(=O)N[C@H]4C[C@@H]4c4ccccc4)C3)cc2)CCN1C(C)=O [Compound 163, (3S,4S)-1-(4-((R)-4-acetyl-3-(tetradecylcarbamoyl)piperazine-1-carbonyl)benzoyl)-N3,N4-bis((1S,2R)-2-phenylcyclopropyl)pyrrolidine-3,4-dicarboxamide]",351 to 1000
